{"source": "patent US20150031702A1", "about": "“PI3K INHIBITORS FOR TREATING COUGH” (GlaxoSmithkline Intellectual Property (No.2) Limited, priority 2012, published 2015)", "tested_on": "dissociated dorsal ganglion sensory neurons", "test": "Sensitization assay: capsaicin-induced Calcium Imaging response after sensitizing cocktail", "assay_type": "cell-based, mouse", "conditions": "co-incubation with various doses of compound (0.002-1000 nM); sensitizing cocktail NGF, GDNF, PGE2, 1β; 3rd capsaicin-induced peak, Fura-2 f340/f380; FIG. 1", "from_the_text": "Capsaicin, the active ingredient in pepper sprays, is an irritant that causes noxious respiratory sensations and reflexes including sneezing and coughing in humans. Capsaicin binds to Transient Receptor Potential Vanilloid 1 (TRPV1), whose expression is enriched in both somatic and visceral nociceptors. Exaggerated response to inhaled capsaicin can be seen in subjects with IPF or with cough hypersensitivity syndrome and can be used as a test. Increased reactivity to capsaicin is generally considered a marker of sensitization of nociceptors. Capsaicin effects in sensory neurons dissected from mouse peripheral ganglia can be used as a model to identify nociceptors and to study the sensitization mechanisms in vitro. Response to capsaicin can be quantified in a relatively large population of dissociated sensory neurons using the method of Calcium Imaging. […]\nEach point represents how well the capsaicin-induced peak is reduced by the drug when compared with negative control (1, no sensitizing solution, no GSK-1) and positive control (0, sensitizing solution, no GSK-1). Calculated, it is:\nWhere C=the average relative f340/f380 value of peak 3 for the sensitization control (sensitizing solution, no GSK-1). X=the individual relative f340/f380 value to be calculated, and N=the average relative f340/f380 value of peak 3 for the negative control (no sensitization solution, no GSK-1).", "data": [{"compound": "COc1ncc(-c2ccc3ncnc(N4CCOCC4)c3c2)cc1NS(=O)(=O)c1ccc(F)cc1F", "note": "[GSK-1, 2,4-difluoro-N-{2-(methyloxy)-5-[4-(4-morpholinyl)-6-quinazolinyl]-3-pyridinyl}benzenesulfonamide]", "values": [{"measurement": "Effect on enhancement of the Calcium Imaging response to capsaicin by the sensitizing cocktail", "result": "dose-dependently abolished"}]}]}
